Source: US20250313575A1, “MACROCYCLES AS LRRK2 INHIBITORS, PHARMACEUTICAL COMPOSITIONS, AND USES THEREOF” (Merck Sharp & Dohme LLC, priority 2022, published 2025)

Molecular target: GST-tagged truncated human mutant G2019S LRRK2 (Homo sapiens (Human), UniProt Q5S007, G2019S)
Assay: LRRK2 G2019S Km ATP LanthaScreen assay
Format: biochemical
Details: G2019S LRRK2, 134 μM ATP (Km ATP), LRRKtide substrate
Outline: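 Ten-point compound series (highest 9.99 μM in DMSO) preincubated 15 min with 1.25 nM GST-tagged truncated human LRRK2 G2019S, then 90 min reaction at ambient temperature with 134 μM ATP (Km) and fluorescein-labelled LRRKtide, pH 8.5. Phosphorylation read as 520/495 nm emission ratio via Tb-labelled antibody; IC50 from 4P logistic regression.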

Chain of GST-tagged truncated human mutant G2019S LRRK2 (Q5S007 970-2527 G2019S): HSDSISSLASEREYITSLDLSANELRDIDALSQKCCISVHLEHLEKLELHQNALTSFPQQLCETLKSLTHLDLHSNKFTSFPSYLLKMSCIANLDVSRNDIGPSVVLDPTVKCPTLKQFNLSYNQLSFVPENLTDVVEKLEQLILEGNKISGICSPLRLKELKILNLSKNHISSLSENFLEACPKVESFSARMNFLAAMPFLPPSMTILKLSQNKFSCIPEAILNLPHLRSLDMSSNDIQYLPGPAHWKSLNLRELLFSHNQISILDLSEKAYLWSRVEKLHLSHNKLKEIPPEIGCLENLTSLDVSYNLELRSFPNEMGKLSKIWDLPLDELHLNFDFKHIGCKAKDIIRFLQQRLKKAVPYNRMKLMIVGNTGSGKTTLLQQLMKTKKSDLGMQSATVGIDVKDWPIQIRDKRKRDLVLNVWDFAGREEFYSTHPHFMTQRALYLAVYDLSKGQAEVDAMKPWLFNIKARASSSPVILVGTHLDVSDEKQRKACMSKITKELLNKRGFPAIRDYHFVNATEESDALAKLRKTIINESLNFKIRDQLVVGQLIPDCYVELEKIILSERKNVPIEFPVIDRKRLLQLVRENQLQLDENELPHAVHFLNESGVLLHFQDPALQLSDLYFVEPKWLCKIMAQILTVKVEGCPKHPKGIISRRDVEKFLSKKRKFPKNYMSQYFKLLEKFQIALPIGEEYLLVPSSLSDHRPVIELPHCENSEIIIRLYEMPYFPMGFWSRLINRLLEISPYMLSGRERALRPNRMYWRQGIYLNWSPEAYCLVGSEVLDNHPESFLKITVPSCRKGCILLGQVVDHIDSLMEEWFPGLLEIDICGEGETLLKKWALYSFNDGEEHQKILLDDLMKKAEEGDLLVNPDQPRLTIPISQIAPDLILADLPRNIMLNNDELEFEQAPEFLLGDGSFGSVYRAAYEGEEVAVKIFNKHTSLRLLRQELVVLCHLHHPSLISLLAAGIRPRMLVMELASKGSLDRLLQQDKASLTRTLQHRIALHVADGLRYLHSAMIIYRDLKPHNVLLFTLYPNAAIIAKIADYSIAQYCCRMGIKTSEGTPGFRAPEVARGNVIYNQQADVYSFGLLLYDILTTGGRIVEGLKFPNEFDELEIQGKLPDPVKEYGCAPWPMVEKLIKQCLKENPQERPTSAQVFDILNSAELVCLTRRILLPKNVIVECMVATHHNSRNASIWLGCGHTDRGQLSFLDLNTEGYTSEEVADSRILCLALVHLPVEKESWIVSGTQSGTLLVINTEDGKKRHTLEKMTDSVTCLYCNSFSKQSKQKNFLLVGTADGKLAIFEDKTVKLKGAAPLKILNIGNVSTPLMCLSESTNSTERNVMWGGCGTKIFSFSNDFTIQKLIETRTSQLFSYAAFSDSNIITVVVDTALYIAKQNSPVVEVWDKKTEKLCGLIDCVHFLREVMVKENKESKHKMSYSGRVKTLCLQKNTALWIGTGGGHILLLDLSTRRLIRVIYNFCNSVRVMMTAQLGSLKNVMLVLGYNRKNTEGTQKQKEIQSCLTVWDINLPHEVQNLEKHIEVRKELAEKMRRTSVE

| SMILES | LRRK2 pIC50 |
| --- | --- |
| Cc1nn(C2CCC2)c2c1OC1COC[C@H]1CNc1nc(ncc1C(F)(F)F)N2 (single isomer, unassigned) [Ex-2.81, (11aR,14aS) or (11aS,14aR)-3-cyclobutyl-1-methyl-8-(trifluoromethyl)-3,4,10,11,11a,12,14,14a-octahydro-5,9-(azeno)furo[3,4-1]pyrazolo[4,3-b][1]oxa[4,6,10]triazacyclotridecine] | 5.99 |
| FC(F)(F)c1cnc2nc1NC1CCC1COc1c(C3CCOC3)nn(C3CCC3)c1N2 [Ex-2.62, (10aR,12aR)-3-cyclobutyl-1-((R)-(10aR,12aR)-3-cyclobutyl-1-((S)-(10aS,12aS)-3-cyclobutyl-1-((R)-(10aS,12aS)-3-cyclobutyl-1-((S)-tetrahydrofuran-3-yl)-8-(trifluoromethyl)-3,4,10,10a,11,12,12a,13-octahydro-5,9-(azeno)cyclobuta[k]pyrazolo[4,3-b][1]oxa[4,6,10]triazacyclotridecine] | 6.88 |
| CC(C)c1nn(C(C)(C)CO)c2c1N(C)c1ncc(C(F)(F)F)c(n1)N[C@H](C)CCO2 [Ex-9.1, (R)-2-(3-isopropyl-4,11-dimethyl-8-(trifluoromethyl)-10,11,12,13-tetrahydro-5,9-(azeno)pyrazolo[3,4-b][1]oxa[4,6,10]triazacyclotridecin-1 (4H)-yl)-2-methylpropan-1-ol] | 6.11 |
| CCn1nc(C(F)(F)F)c2c1OC[C@@H]1COC[C@H]1Nc1nc(ncc1Cl)N2 [Ex-1.20, (10aS,13aS)-8-chloro-1-ethyl-3-(trifluoromethyl)-1,4,10a,11,13a,14-hexahydro-10H,13H-5,9-(azeno)furo[3,4-k]pyrazolo[3,4-b][1]oxa[4,6,10]triazacyclotridecine] | 9.42 |
| Cc1nn(C2CCC2)c2c1OC[C@H]1CC[C@H]1Nc1nc(ncc1C(F)(F)F)N2 (single isomer, unassigned) [Ex-2.22, (10aR,12aS)- or (10aS,12aR)-3-cyclobutyl-1-methyl-8-(trifluoromethyl)-3,4,10,10a,11,12,12a,13-octahydro-5,9-(azeno)cyclobuta[k]pyrazolo[4,3-b][1]oxa[4,6,10]triazacyclotridecine] | 5.76 |
| O[C@@H]1COCC1n1nc(C2CC2)c2c1OC[C@H]1CC[C@@H]1Nc1nc(ncc1C(F)(F)F)N2 (single isomer, unassigned) [Ex-6.3, (3R,4S)-4-((10aR,12aR)- or (3R,4S)-4-((10aS,12aS)- or (3S,4R)-4-((10aR,12aR)- or (3S,4R)-4-((10aR,12aR)-3-cyclopropyl-8-(trifluoromethyl)-10,10a,11,12,12a,13-hexahydro-5,9-(azeno)cyclobuta[k]pyrazolo[3,4-b][1]oxa[4,6,10]triazacyclotridecin-1 (4H)-yl)tetrahydrofuran-3-ol] | 7.29 |
| Cc1nn(C2CCC2)c2c1OC[C@H]1COC[C@@H]1Nc1nc(ncc1C(F)(F)F)N2 (single isomer, unassigned) [Ex-2.26, (10aS,13aS)- or (10aR,13aR)-3-cyclobutyl-1-methyl-8-(trifluoromethyl)-3,4,10a,11,13a, 14-hexahydro-10H,13H-5,9-(azeno)furo[3,4-k]pyrazolo[4,3-b][1]oxa[4,6,10]triazacyclotridecine] | 6.77 |
| Cc1nn(C2CCC2)c2c1OCCC(C)Nc1nc(ncc1C(F)(F)F)N2 (single isomer, unassigned) [Ex-2.7, (R)- or (S)-1-cyclobutyl-3,7-dimethyl-10-(trifluoromethyl)-1,5,6,7,8,14-hexahydro-9,13-(azeno)pyrazolo[4,3-b][1]oxa[4,6,10]triazacyclotridecine] | 7.21 |
| Cc1nn(C2CCC2)c2c1OC[C@H]1CN(C3COCC3F)C[C@@H]1Nc1nc(ncc1C(F)(F)F)N2 (mixture of isomers) [Ex-3.1, (10aS,13aR)- and (10aR,13aS)-3-cyclobutyl-12-(4-fluorotetrahydrofuran-3-yl)-1-methyl-8-(trifluoromethyl)-3,4,10a,11,12,13,13a,14-octahydro-10H-5,9-(azeno)pyrazolo[4,3-b]pyrrolo[3,4-k][1]oxa[4,6,10]triazacyclotridecine] | >10.09 |
| Cn1nc(C2CC2)c2c1OCC1CCC1Nc1nc(ncc1C(F)(F)F)N2 [Ex-1.8, (10aR,12aS)- or (10aS,12aR)-3-cyclopropyl-1-methyl-8-(trifluoromethyl)-1,4,10,10a,11,12,12a,13-octahydro-5,9-(azeno)cyclobuta[k]pyrazolo-[3,4-b][1]oxa[4,6,10]triazacyclo-tridecine] | 5.94 |
| Cc1nn(C2CC2)c2c1OC[C@@H]1CC[C@H]1Oc1nc(ncc1C(F)(F)F)N2 [Ex-14.1, (10aR,13aS)- or (10aS,13aR)-3-Cyclopropyl-1-methyl-8-(trifluoromethyl)-3,4,10a,11,12a,13-hexahydro-12H-5,9-(azeno)cyclobuta[k]pyrazolo[4,3-b][1,10]dioxa[4,6]diazacyclotridecine] | 8.78 |
| Cc1nn(C)c2c1OCC1(CNc3nc(ncc3C(F)(F)F)N2)CC12CCOCC2 (single isomer, unassigned) [Ex-2.16, (R)- or (S)-1″,3″-dimethyl-10″- (trifluoromethyl)-1″,2,3,5,6,7″,8″,14″. octahydro-5″H-dispiro[pyran-4,1′-cyclopropane-2′,6″- [9,13](azeno)pyrazolo[4,3-b][1]oxa[4,6,10]triazacyclotridecine]] | 7.93 |
| Cc1nn(C2CC2(F)F)c2c1OCC1COCC1Nc1nc(ncc1C(F)(F)F)N2 [Ex-2.58, (10aS,13aS)-3-((R)-2,2-difluorocyclopropyl)-1-methyl-8-(trifluoromethyl)-3,4,10a,11,13a,14-hexahydro-10H,13H-5,9-(azeno)furo[3,4-k]pyrazolo[4,3-b][1]oxa[4,6,10]triazacyclotridecine (10aS,13aS)-3-((S)-2,2-difluorocyclopropyl)-1-methyl-8-(trifluoromethyl)-3,4,10a,11,13a,14-hexahydro-10H,13H-5,9-(azeno)furo[3,4-k]pyrazolo[4,3-b][1]oxa[4,6,10]triazacyclotridecine] | 8.78 |
| Cc1nn(C2CCC2)c2c1OCC1CCCC1Nc1nc(ncc1C(F)(F)F)N2 [Ex-5.4, (10aR,13aR)- or (10aS,13aS)-3-cyclobutyl-1-methyl-8-(trifluoromethyl)-3,4,10a,11,12,13,13a,14-octahydro-10H-5,9-(azeno)cyclopenta[k]pyrazolo[4,3-b][1]oxa[4,6,10]triazacyclotridecine] | 6.78 |
| Cc1nn2c(c1C)Nc1ncc(C(F)(F)F)c(n1)N[C@@H](C)CCC2 (single isomer, unassigned) [Ex-16.1, 8,14,15-Trimethyl-5-(trifluoromethyl)-8,9,10,11-tetrahydro-1H,7H-2,6-(azeno)pyrazolo[1,5-a][1,3,5,9]tetraazacyclotridecine] | 7.70 |
| Cc1nn(C2CCC2)c2c1OC[C@H]1CC[C@H]1Nc1nc(ncc1C(F)(F)F)N2 (single isomer, unassigned) [Ex-2.23, (10aR,12aS)- or (10aS,12aR)-3-cyclobutyl-1-methyl-8-(trifluoromethyl)-3,4,10,10a,11,12,12a,13-octahydro-5,9-(azeno)cyclobuta[k]pyrazolo[4,3-b][1]oxa[4,6,10]triazacyclotridecine] | >10.09 |
| COC1CC(n2nc(C)c3c2Nc2ncc(C(F)(F)F)c(n2)N[C@@H]2CC[C@H]2CO3)C1 (stereo partly drawn) [Ex-2.78, (10aR,12aR)-3-(3-methoxycyclobutyl)-1-methyl-8-(trifluoromethyl)-3,4,10,10a,11,12,12a,13-octahydro-5,9-(azeno)cyclobuta[k]pyrazolo[4,3-b][1]oxa[4,6,10]triazacyclotridecine] | >10.09 |
| Cc1nn(C)c2c1CCC[C@@H](C)Nc1nc(ncc1C(F)(F)F)N2 (single isomer, unassigned) [Ex-11.1, (R)- or (S)-1,3,7-Trimethyl-10-(trifluoromethyl)-4,5,6,7,8,14-hexahydro-1H-9,13-(azeno)pyrazolo[4,3-l][1,3,7]triazacyclotridecine] | 8.49 |
| Cc1nn(C2CCC2)c2c1OC[C@@H]1CC[C@@H]1Nc1nc(ncc1Cl)N2 [Ex-2.56, (10aS,12aR)-8-chloro-3-cyclobutyl-1-methyl-3,4,10,10a,11,12,12a,13-octahydro-5,9-(azeno)cyclobuta[k]pyrazolo[4,3-b][1]oxa[4,6,10]triazacyclotridecine] | >10.09 |
| FC(F)(F)c1cnc2nc1N[C@@H]1COC[C@H]1COc1cc(Cl)ncc1N2 [Ex-15.8, (3aS,16aS)-13-chloro-6-(trifluoromethyl)-3a,4,16,16a-tetrahydro-1H,3H,10H-5,9-(azeno)furo[3,4-k]pyrido[4,3-b][1]oxa[4,6,10]triazacyclotridecine] | 9.04 |
| COC1CCC1n1nc(C)c2c1Nc1ncc(C(F)(F)F)c(n1)NC1COCC1CO2 [Ex-2.37, (10aS,13aS)-3-((1R,2R)-(10aS,13aS)-3-((1S,2R)-(10aS,13aS)-3-((1R,2S)-(10aS,13aS)-3-((1R,2R)-(10aR,13aR)-3-((1S,2R)-(10aR,13aR)-3-((1R,2S)-2-methoxycyclobutyl)-1-methyl-8-(trifluoromethyl)-3,4,10a,11,13a,14-hexahydro-10H,13H-5,9-(azeno)furo[3,4-k]pyrazolo[4,3-b][1]oxa[4,6,10]triazacyclotridecine] | 6.00 |
| Cn1nc(C(F)(F)F)c2c1Nc1ncc(Cl)c(n1)N[C@@H]1COC[C@H]1CO2 [Ex-2.75, (10aS,13aS)-8-chloro-3-methyl-1-(trifluoromethyl)-3,4,10a,11,13a,14-hexahydro-10H,13H-5,9-(azeno)furo[3,4-k]pyrazolo[4,3-b][1]oxa[4,6,10]triazacyclotridecine] | 9.50 |
